What was measured:
GCN2 = GCN2 (Homo sapiens, UniProt Q9P2K8); assay: GCN2 enzyme assay; assay type: biochemical
SYK = target: T1, SYK (Homo sapiens, UniProt P43405); assay: SYK flash plate assay (enzyme assay); assay type: biochemical
T1 construct: 2.5 nM SYK, 400 nM Biotin-Aha-Aha-KEDPDYEWPSAKK
Summary of the method: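 Radiometric Flashplate format: biotinylated peptide substrate (400 nM) and 33P-labelled ATP (10 μM) react with 2.5 nM enzyme for 1 hour at 30 °C in Hepes buffer, pH 7.5. After EDTA quench and washing, counts are taken; staurosporine defines non-specific signal, and IC50 values are derived.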

Chain of GCN2 (Q9P2K8 whole entry): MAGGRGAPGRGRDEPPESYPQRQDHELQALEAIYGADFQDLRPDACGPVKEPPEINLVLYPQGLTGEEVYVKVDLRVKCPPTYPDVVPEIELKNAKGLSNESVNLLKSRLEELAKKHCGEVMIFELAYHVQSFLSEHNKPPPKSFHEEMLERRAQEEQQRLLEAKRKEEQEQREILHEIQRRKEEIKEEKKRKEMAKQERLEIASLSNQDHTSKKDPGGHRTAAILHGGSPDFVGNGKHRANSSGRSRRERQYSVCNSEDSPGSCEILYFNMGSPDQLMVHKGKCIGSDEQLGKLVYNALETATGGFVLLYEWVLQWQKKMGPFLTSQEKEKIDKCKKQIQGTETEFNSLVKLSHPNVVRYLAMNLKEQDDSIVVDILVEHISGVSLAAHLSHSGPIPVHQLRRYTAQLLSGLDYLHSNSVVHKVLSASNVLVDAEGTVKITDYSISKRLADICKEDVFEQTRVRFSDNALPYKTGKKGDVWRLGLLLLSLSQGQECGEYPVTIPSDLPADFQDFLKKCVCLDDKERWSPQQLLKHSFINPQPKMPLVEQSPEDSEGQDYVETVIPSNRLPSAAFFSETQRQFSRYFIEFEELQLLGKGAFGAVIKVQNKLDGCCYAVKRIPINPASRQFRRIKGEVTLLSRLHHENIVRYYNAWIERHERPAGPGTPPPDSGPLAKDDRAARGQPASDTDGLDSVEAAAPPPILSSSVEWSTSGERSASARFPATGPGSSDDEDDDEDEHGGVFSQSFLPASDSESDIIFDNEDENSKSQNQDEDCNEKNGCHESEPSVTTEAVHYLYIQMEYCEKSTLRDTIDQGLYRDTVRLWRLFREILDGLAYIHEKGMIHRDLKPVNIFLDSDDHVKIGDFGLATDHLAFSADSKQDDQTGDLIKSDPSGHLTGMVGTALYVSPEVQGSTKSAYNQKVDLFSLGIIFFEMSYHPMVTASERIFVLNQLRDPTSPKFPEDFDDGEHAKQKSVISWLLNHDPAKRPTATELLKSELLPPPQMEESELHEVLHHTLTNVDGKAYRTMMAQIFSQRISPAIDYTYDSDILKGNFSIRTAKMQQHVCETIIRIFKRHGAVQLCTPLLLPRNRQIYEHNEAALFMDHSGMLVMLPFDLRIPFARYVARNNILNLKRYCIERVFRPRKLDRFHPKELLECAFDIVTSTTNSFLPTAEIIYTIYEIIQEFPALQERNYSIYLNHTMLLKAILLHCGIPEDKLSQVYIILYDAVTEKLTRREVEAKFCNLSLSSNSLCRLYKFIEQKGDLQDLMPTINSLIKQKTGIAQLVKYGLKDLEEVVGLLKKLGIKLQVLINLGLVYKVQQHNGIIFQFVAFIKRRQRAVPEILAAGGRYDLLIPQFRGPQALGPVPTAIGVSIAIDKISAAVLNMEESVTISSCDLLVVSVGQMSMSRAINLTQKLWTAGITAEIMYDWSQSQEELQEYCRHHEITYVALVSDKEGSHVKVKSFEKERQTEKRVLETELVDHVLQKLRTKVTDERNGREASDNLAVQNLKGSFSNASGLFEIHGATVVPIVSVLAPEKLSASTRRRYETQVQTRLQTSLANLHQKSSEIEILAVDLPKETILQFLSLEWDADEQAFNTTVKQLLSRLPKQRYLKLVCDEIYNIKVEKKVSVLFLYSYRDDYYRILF

With `Cn1cc(-c2nccn3nc(Nc4ccc5cn[nH]c5c4)nc23)cn1` [C12, (1H-Indazol-6-yl)-[8-(1-methyl-1H-pyrazol-4-yl)-[1,2,4]triazolo[1,5-a]pyrazin-2-yl]-amine] the IC50 (GCN2) was 3 to 50 µM and the IC50 (SYK) was 0.1 to 0.3 µM.
`Cn1cc(-c2nccn3nc(Nc4ccc(S(C)(=O)=O)cc4)nc23)cn1` [C23, (4-Methanesulfonyl-phenyl)-[8-(1-methyl-1H-pyrazol-4-yl)-[1,2,4]triazolo[1,5-a]pyrazin-2-yl]-amine] gave an IC50 (GCN2) of 3 to 50 µM and an IC50 (SYK) of 0.3 to 3 µM.
`COc1cc(Nc2nc3c(N4CCN(C)CC4c4ccccc4)nccn3n2)cc(OC)c1` (stereo not shown) [C55, (3,5-dimethoxy-phenyl)-[8-(4-methyl-2-phenyl-piperazin-1-yl)-[1,2,4]triazolo[1,5-a]pyrazin-2-yl]-amine] gave an IC50 (GCN2) of 3 to 50 µM and an IC50 (SYK) of 0.3 to 3 µM.
Compound `CN(c1nccn2nc(Nc3ccc4c(c3)NC(=O)C4(C)C)nc12)C1CCCNC1` (stereo not shown) [C88, 3,3-dimethyl-6-[8-(methyl-piperidin-3-yl-amino)-[1,2,4]triazolo[1,5-a]pyrazin-2-ylamino]-1,3-dihydro-indol-2-one] has an IC50 (GCN2) of 3 to 50 µM and an IC50 (SYK) of 0.3 to 3 µM.
In the case of `CC1(C)C(=O)Nc2cc(Nc3nc4c(N5CC6(COC6)C5)nccn4n3)ccc21` [C91, 3,3-dimethyl-6-[8-(2-oxa-6-aza-spiro[3.3]hept-6-yl)-[1,2,4]triazolo[1,5-a]pyrazin-2-ylamino]-1,3-dihydro-indol-2-one], the IC50 (GCN2) is reported as 3 to 50 µM and the IC50 (SYK) is reported as under 0.1 µM.
With `Cn1cc(-c2nccn3nc(Nc4ccc5c(c4)CS(=O)(=O)N5)nc23)cn1` [C115, (2,2-dioxo-2,3-dihydro-1H-2I6-benzo[c]isothiazol-5-yl)-[8-(1-methyl-1H-pyrazol-4-yl)-[1,2,4]triazolo[1,5-a]pyrazin-2-yl]-amine] the IC50 (GCN2) was 3 to 50 µM and the IC50 (SYK) was 0.1 to 0.3 µM.
Compound `CC(C)C1(O)C(=O)Nc2cc(Nc3nc4c(-c5cnn(C)c5)nccn4n3)ccc21` (stereo not shown) [C82, 3-hydroxy-3-isopropyl-6-[8-(1-methyl-1H-pyrazol-4-yl)-[1,2,4]triazolo[1,5-a]pyrazin-2-ylamino]-1,3-dihydro-indol-2-one] has an IC50 (GCN2) of 0.3 to 3 µM and an IC50 (SYK) of 0.1 to 0.3 µM.
In the case of `CC1(C)C(=O)Nc2cc(Nc3nc4c(N5CCC(N6CCNC6=O)CC5)nccn4n3)ccc21` [C104, 3,3-dimethyl-6-{8-[4-(2-oxo-imidazolidin-1-yl)-piperidin-1-yl]-[1,2,4]triazolo[1,5-a]pyrazin-2-ylamino}-1,3-dihydro-indol-2-one], the IC50 (GCN2) is reported as 3 to 50 µM and the IC50 (SYK) is reported as 0.3 to 3 µM.
With `Cn1cc(-c2nccn3nc(Nc4ccc([S+](C)[O-])cc4)nc23)cn1` (stereo not shown) [C32, (4-Methanesulfinyl-phenyl)-[8-(1-methyl-1H-pyrazol-4-yl)-[1,2,4]triazolo[1,5-a]pyrazin-2-yl]-amine] the IC50 (GCN2) was 3 to 50 µM and the IC50 (SYK) was 0.3 to 3 µM.
Work on `COc1cc(Nc2nc3c(N4CCC(O)(CCO)CC4)nccn3n2)cc(OC)c1` [C49, 1-[2-(3,5-dimethoxy-phenylamino)-[1,2,4]triazolo[1,5-a]pyrazin-8-yl]-4-(2-hydroxy-ethyl)-piperidin-4-ol] yielded an IC50 (GCN2) of 3 to 50 µM and an IC50 (SYK) of 0.3 to 3 µM.
Compound `CC(C)C(O)(c1n[nH]c2cc(Nc3nc4c(-c5cnn(C)c5)nccn4n3)ccc12)C(C)C` [C141, 2,4-dimethyl-3-{6-[8-(1-methyl-1H-pyrazol-4-yl)-[1,2,4]triazolo[1,5-a]pyrazin-2-ylamino]-1H-indazol-3-yl}-pentan-3-ol] has an IC50 (GCN2) of 0.3 to 3 µM and an IC50 (SYK) of under 0.1 µM.

Reference: patent US9120804B2, “8-substituted 2-amino-[1,2,4] triazolo [1, 5-A] pyrazines as Syk tryrosine kinase inhibitors and GCN2 serin kinase inhibitors” (Merck Patent GmbH, priority 2012, dated 2015)
